Assay results as given in US20240368191A1, “HETEROCYCLIC COMPOUNDS AND USES THEREOF” (Kumquat Biosciences Inc., priority 2021, published 2024).

Test: Metabolic (microsomal) stability assay
Settings: pooled liver microsomes, pH 7.4

Work on `Nc1nc2c(-c3c(Cl)cc4c(N5CCC56CCN(C(=O)n5cncn5)CC6)nc(OC[C@@]56CCCN5C[C@H](F)C6)nc4c3F)ccc(F)c2s1` [Compound A288, (1-(7-(2-amino-7-fluorobenzo-[d]thiazol-4-yl)-6-chloro-8-fluoro-2-(((2R,7aS)-2-fluoro-tetrahydro-1H-pyrrolizin-7a(5H)-yl)methoxy)quinazolin-4-yl)-1,7-diazaspiro[3.5]nonan-7-yl)(1H-1,2,4-triazol-1-yl)-methanone] yielded a half-life at 0.5 μM greater than 10 min.
In the case of `C[C@@H]1CN(C(=O)n2cncn2)[C@@H](C)CN1c1nc(OC[C@@]23CCCN2C[C@H](F)C3)nc2c(F)c(-c3ccc(F)c4sc(N)nc34)c(Cl)cc12` [Compound A244, ((2S,5R)-4-(7-(2-amino-7-fluorobenzo[d]thiazol-4-yl)-6-chloro-8-fluoro-2-(((2R,7aS)-2-fluorotetrahydro-1H-pyrrolizin-7a(5H)-yl)methoxy)quinazolin-4-yl)-2,5-dimethylpiperazin-1-yl)(1H-1,2,4-triazol-1-yl)meth-anone], the half-life at 0.5 μM is reported as greater than 10 min.
`N#Cc1c(N)sc2c(F)ccc(-c3c(Cl)cc4c(N5CCC6CN(C(=O)n7cncn7)CC65)nc(OC[C@@]56CCCN5C[C@H](F)C6)nc4c3F)c12` (stereo partly drawn) [Compound A178, 4-(4-(5-(1H-1,2,4-triazole-1-carbonyl)hexahydropyrrolo[3,4-b]pyrrol-1(2H)-yl)-6-chloro-8-fluoro-2-(((2R,7aS)-2-fluoro-tetrahydro-1H-pyrrolizin-7a(5H)-yl)methoxy)quinazolin-7-yl)-2-amino-7-fluorobenzo-[b]thiophene-3-carbonitrile] showed a half-life at 0.5 μM greater than 10 min.
Compound `Nc1nc2c(-c3c(Cl)cc4c(N5CCOC6(CN(C(=O)n7cncn7)C6)C5)nc(OC[C@@]56CCCN5C[C@H](F)C6)nc4c3F)ccc(F)c2s1` [Compound A273, (8-(7-(2-amino-7-fluorobenzo-[d]thiazol-4-yl)-6-chloro-8-fluoro-2-(((2R,7aS)-2-fluoro-tetrahydro-1H-pyrrolizin-7a(5H)-yl)methoxy)quinazolin-4-yl)-5-oxa-2,8-diazaspiro[3.5]-nonan-2-yl)(1H-1,2,4-triazol-1-yl)methanone] has a half-life at 0.5 μM greater than 10 min.
Work on `C#Cc1c(F)ccc2cc(O)cc(-c3ncc4c(N5CCOC6(CN(C(=O)n7cncn7)C6)C5)nc(OC[C@@]56CCCN5C[C@H](F)C6)nc4c3F)c12` [Compound A106, (8-(7-(8-ethynyl-7-fluoro-3-hydroxynaphthalen-1-yl)-8-fluoro-2-(((2R,7aS)-2-fluoro-tetrahydro-1H-pyrrolizin-7a(5H)-yl)methoxy)pyrido-[4,3-d]pyrimidin-4-yl)-5-oxa-2,8-diazaspiro[3.5]nonan-2-yl)(1H-1,2,4-triazol-1-yl)-methanone] yielded a half-life at 0.5 μM greater than 10 min.
With `N#Cc1c(N)sc2c(F)ccc(-c3c(Cl)cc4c(N5CCOC6(CN(C(=O)n7cncn7)C6)C5)nc(OC[C@@]56CCCN5C[C@H](F)C6)nc4c3F)c12` [Compound A132, 4-(4-(2-(1H-1,2,4-triazole-1-carbonyl)-5-oxa-2,8-diaza-spiro[3.5]nonan-8-yl)-6-chloro-8-fluoro-2-(((2R,7aS)-2-fluorotetrahydro-1H-pyrrolizin-7a(5H)-yl)methoxy)quinazolin-7-yl)-2-amino-7-fluorobenzo-[b]thiophene-3-carbonitrile] the half-life at 0.5 μM was greater than 10 min.
Work on `Nc1nc2c(-c3c(Cl)cc4c(N5CC6(CN(C(=O)n7cncn7)CCO6)C5)nc(OC[C@@]56CCCN5C[C@H](F)C6)nc4c3F)ccc(F)c2s1` [Compound A268, (2-(7-(2-amino-7-fluorobenzo-[d]thiazol-4-yl)-6-chloro-8-fluoro-2-(((2R,7aS)-2-fluoro-tetrahydro-1H-pyrrolizin-7a(5H)-yl)methoxy)quinazolin-4-yl)-5-oxa-2,8-diazaspiro[3.5]-nonan-8-yl)(1H-1,2,4-triazol-1-yl)methanone] yielded a half-life at 0.5 μM greater than 10 min.
